Results on 4 substances are retold here after patent US20090202573A1, “POLYMERIC CONJUGATES CONTAINING POSITIVELY-CHARGED MOIETIES” (ENZON PHARMACEUTICALS, INC., priority 2006, published 2009).

For data set [1], the system named is Survivin mRNA. The data set can be described thus: Survivin mRNA downregulation in DU145 cell model (prostate cancer) (Example 68). Particulars: Example 68: DU145 cells, FIG. 19. It is filed as cell-based. An excerpt:
DU145 cells were transfected with the same compounds used in Example 67.

In data set [2] the test system is Survivin mRNA. The data set can be described thus: Survivin mRNA downregulation in A549 cell model, RT-PCR (Examples 67, 69, 70, 71, 71 bis). Format: cell-based, human. The procedure: This study was conducted to determine the effects of the positively charged polymers on Survivin mRNA expression. A549 human lung cells were transfected with each of compounds 33b-I-R4, 33b-I-R5 and 33a-I-R3 in concentrations of 1000 nM, 200 nM, 40 nM, 8 nM and 1.6 nM. […] Compound 33a-I-R3 ([RGD-TATC-S—S]7-^20K8arm PEG-SS-antisense Survivin LNA) includes the TAT peptide and antisense Survivin LNA. The Survivin mRNA expression in the A549 cells treated with each of the compounds was measured by RT-PCR one day after the treatment.
A549 human lung cancer cells were transfected with each of compound 33a-I-R2 and the naive antisense Survivin LNA. Compound 33a-I-R2 ([(Arg)9C—S—S]7-^20K8arm PEG-S—S-antisense Survivin LNA) includes seven polymer arm terminals connected to C(Arg)9 and one arm terminal connected to the antisense Survivin LNA via the intracellular releasable disulfide bond. The naive oligonucleotides (antisense Survivin LNA) were also transfected with the transfection agent lipofectamine.
A549 cells were transfected with each of compound 59 and the antisense Survivin LNA dimer. The dimer of the antisense Survivin LNA modified with a C6—SH tail (antisense Survivin LNA-C6—S—S—C6-antisense Survivin LNA) was also transfected with the transfection agent. Compound 59 contains a hydrazone-based releasable linker.
This study was conducted to determine whether the positively charged polymers containing a targeting agent is as effective as the positively charged polymers without a targeting agent and thus the polymers containing the targeting agent can be utilized for targeted delivery. A549 cells were transfected with each of compounds 33a-I-R1 (TATC-S—S)7-^20K8arm PEG-S—S-antisense Survivin LNA) and 33a-I-R3 ([RGD-TATC-S—S]7-^20K8arm PEG-S—S-antisense Survivin LNA). In compounds 33a-I-R1 and 33a-I-R3, seven polymer arm terminals are connected to C-TAT and C-TAT-RGD, respectively. The cells were also transfected with the antisense Survivin LNA modified with a SH—C6 tail with or without the transfection agent. […] This feature of the positively charged polymers is beneficial to target agent directed delivery of oligonucleotide therapeutics.
A549 human lung cancer cells were transfected with each of compound 33a-I-R1 (TATC-S—S)7-^20K8arm PEG-S—S-antisense Survivin LNA), compound 33a-II-R1 (TATC-S—S)7-^20K8arm PEG-S—S-scrambled Survivin LNA) and the native antisense Survivin LNA. Compound […] corresponds to compound […] except in that it includes mismatching nucleotides within the antisense Survivin LNA (scrambled Survivin LNA: 5′-s^mCsGs^mCsAsgsaststsasgsasasAs^mCs^mCst-3′). The naive antisense Survivin LNA was also transfected with the transfection agent.

Data set [3] has as its system BCL2 mRNA. As to the kind of experiment: BCL2 mRNA downregulation, RT-PCR, A431 cells (Example 66). Format: cell-based, human. Particulars: without transfection agent, FIG. 17. The procedure: This study was conducted to determine whether the oligonucleotides uptaken by cancer cells downregulate specific gene expression involved in cancer. A431 cells were transfected with native oligonucleotides and compound 23a-I-R1 without transfection agent. The positively charged polymer conjugate contains TAT and BCL2 siRNA.

[4] abbreviates: Example 71: A549 cells, polymers with or without targeting agent (RGD), FIG. 22.

d = 2'-deoxy (DNA); r = 2'-OH (RNA)

Regarding “(TATC-S—S)7-^20K8arm PEG-S—S-antisense Survivin LNA [Compound 33a-I-R1]”, the “Survivin mRNA expression” value is listed as “similarly observed” in data set [1] and “downregulated Survivin mRNA expression” in data set [2] (setting [4]). In data set [2] (second Example 71: A549 cells, antisense versus scrambled (mismatching) Survivin LNA, FIG. 23), the “Specific inhibition of Survivin mRNA expression” value was “significantly inhibited Survivin mRNA expression”.
As for “[(Arg)9C—S—S]7-^20K8arm PEG-S—S-antisense Survivin LNA [Compound 33a-I-R2]”, in data set [2] (Example 69: A549 cells, without the transfection agent, FIG. 20), the “Survivin mRNA expression” value was “significantly downregulated Survivin mRNA expression”.
For the substance “[RGD-TATC-S—S]7-^20K8arm PEG-SS-antisense Survivin LNA [Compound 33a-I-R3]”, the “Survivin mRNA expression” value in data set [1] was “significant down-regulation of Survivin mRNA expression”; in data set [2] (Example 67: A549 cells, 1000 nM to 1.6 nM, RT-PCR one day after treatment, without transfection agent, FIG. 18) it was “significantly downregulated Survivin mRNA expression”; in data set [2] (setting [4]), “downregulated Survivin mRNA expression”. For the same substance, in data set [2] (Example 67: A549 cells, 1000, 200, 40, 8 and 1.6 nM, FIG. 18), the “dose dependence of Survivin mRNA downregulation” value is listed as “dose-dependent”.
As to “native Bcl2 siRNA: unconjugated antisense Bcl2 siRNA (SEQ ID NOs: 4 and 5) (chain 1 GCAUGCGGCCUCUGUUUGATT; chain 2 UCAAACAGAGGCCGCAUGCTT; sugars from the 5' end r19 d2, backbone not given here)”, the “BCL2 mRNA expression” value in data set [3] is listed as “downregulated BCL2 mRNA expression dose-dependently”.
